In US20100331269A1, “TRITERPENES DERIVATIVES AND USES THEREOF AS ANTITUMOR AGENTS OR ANTI-INFLAMMATORY AGENTS” (priority 2006, published 2010):

Columns and labels:
[1] = test system: WS-1 human normal skin fibroblasts; experiment: Cytotoxicity, resazurin metabolism assay, WS-1; assay type: cell-based; conditions: 48 h, mean ± SD
Text: (§1) Human lung carcinoma (A-549), human colon adenocarcinoma (DLD-1), human normal fibroblasts (WS1), mice melanoma (B16-F1), Human glioma (U-251), Human hepatocellular carcinoma (HEP G2), Human prostate adenocarcinoma (PC-3), Human ovary teratocarcinoma metastatic (PA-1), Human breast adenocarcinona metastatic (MDA-MB-231), Human breast adenocarcinoma (MCF-7) and Human malignant melanoma (SK-MEL-2) cell lines were obtained from the American Type Culture Collection (ATCC). All cell lines were cultured in minimum essential medium containing Earle's salts and L-glutamine (Mediatech Cellgro, Va.), to which was added 10% fetal bovine serum (Hyclone), vitamins (1×), penicillin (100 I.U./mL) and streptomycin (100 μg/mL), essential amino acids (1×) and sodium pyruvate (1×) (Mediatech Cellgro, Va.). Cells were kept at 37° C. in a humidified environment containing 5% CO2.
(§2) Exponentially growing cells were plated in 96-well microplates (Costar, Corning Inc.) at a density of 5×10^3 cells per well in 100 μL of culture medium and were allowed to adhere for 16 hours before treatment. Increasing concentrations of each compound in DMSO (Sigma-Aldrich) were then added (100 μL per well) and the cells were incubated for 48 h. […] Cytotoxicity was assessed using resazurin (O'Brien, J. et al., Eur. J. Biochem. 2000, 267, 5421-5426) on an automated 96-well Fluoroskan Ascent F1™ plate reader (Labsystems) using excitation and emission wavelengths of 530 nm and 590 nm, respectively. Fluorescence was proportional to the cellular metabolic activity in each well. Survival percentage was defined as the fluorescence in experimental wells compared to that in control wells after subtraction of blank values. Each experiment was carried out three times in triplicata. IC50 results were expressed as mean±standard deviation.
(§3) The cytotoxicity of triterpenes (1-8) and corresponding glycosides (9-30) (Table 2 below) as well as of germanicane-type triterpenes and glycosides (31-44) (Table 3 below) was assessed towards human cancer (A-549, DLD-1), mouse melanoma (B16-F1) and human normal skin fibroblast (WS1) cell lines using the resazurin reduction test (RTT test) as previously described (O'Brien, J. et al., Eur. J. Biochem. 2000, 267, 5421-5426). Measurements of fluorescence were carried out after 48 continuous hours of contact between compounds and cells. Results presented in Tables 2 and 3 below express the concentration inhibiting 50% of the cell growth (IC50). Known for its activity against A-549, betulinic acid (3) was used as a positive control in this experimentation. […] The cytotoxic activity of some of these compounds was also assessed using the Hoechst DNA assay (Table 4 below).

[2] = test system: DLD-1 human colorectal adenocarcinoma cells; experiment: Cytotoxicity, resazurin metabolism assay, DLD-1; assay type: cell-based; conditions: 48 h, mean ± SD
Text: as §1, §2, §3

[3] = test system: A-549 cells; experiment: Cytotoxicity, Hoechst DNA assay, A-549; assay type: cell-based, human; conditions: ± SD
Text: as §1, §3

[4] = test system: B16-F1 cells; experiment: Cytotoxicity, Hoechst DNA assay, B16-F1; assay type: cell-based, mouse; conditions: ± SD
Text: as §1, §3

[5] = test system: DLD-1 cells; experiment: Cytotoxicity, Hoechst DNA assay, DLD-1; assay type: cell-based, human; conditions: ± SD
Text: as §1, §3

[6] = test system: B16-F1 mouse melanoma cells; experiment: Cytotoxicity, resazurin metabolism assay, B16-F1; assay type: cell-based; conditions: 48 h, mean ± SD
Text: as §1, §2, §3

[7] = test system: A-549 human lung carcinoma cells; experiment: Cytotoxicity, resazurin metabolism assay, A-549; assay type: cell-based; conditions: 48 h, mean ± SD
Text: as §1, §2, §3

[8] = test system: WS-1 cells; experiment: Cytotoxicity, Hoechst DNA assay, WS-1; assay type: cell-based, human; conditions: ± SD
Text: as §1, §3

SMILES	IC50 [1] [µM]	IC50 [2] [µM]	IC50 [3] [µM]	IC50 [4] [µM]	IC50 [5] [µM]	IC50 [6] [µM]	IC50 [7] [µM]	IC50 [8] [µM]
C=C(C)C1CCC2(COC3OC(C)C(O)C(O)C3O)CCC3(C)C(CCC4C5(C)CCC(O)C(C)(C)C5CCC43C)C12 [Compound 16, 28-O-α-L-Rhamnopyranoside of Betulin]	> 228	> 228	> 194	> 194	> 194	> 228	> 228	> 194
CC1(C)CC[C@]23CC[C@]4(C)[C@H](CC[C@@H]5[C@@]6(C)CC[C@H](O)C(C)(C)[C@@H]6CC[C@]54C)[C@H]2[C@H]1OC3 [Compound 31, Allobetulin]	> 100	> 100	–	–	–	–	> 100	–
C[C@@H]1O[C@@H](O[C@H]2CC[C@]3(C)[C@H]4CC[C@@H]5[C@H]6[C@H]7OC[C@@]6(CCC7(C)C)CC[C@@]5(C)[C@]4(C)CC[C@H]3C2(C)C)[C@H](O)[C@H](O)[C@H]1O [Compound 34, 3-O-α-L-Rhamnopyranoside of Allobetulin]	75 ± 5	> 100	–	–	–	–	> 100	–
C=C(C)[C@@H]1CC[C@]2(CO)CC[C@]3(C)[C@H](CC[C@@H]4[C@@]5(C)CC[C@H](O[C@@H]6OC[C@@H](O)[C@H](O)[C@H]6O)C(C)(C)[C@@H]5CC[C@]43C)[C@@H]12 [Compound 27, 3-O-β-D-Xylopyranoside of Betulin]	> 100	> 100	–	–	–	–	90 ± 10	–
C=C(C)[C@@H]1CC[C@]2(C)CC[C@]3(C)[C@H](CC[C@@H]4[C@@]5(C)CC[C@H](O)C(C)(C)[C@@H]5CC[C@]43C)[C@@H]12 [Compound 1, Lupeol, reference compound]	63 ± 3	125 ± 6	130 ± 20	72 ± 9	102 ± 6	104 ± 6	165 ± 8	70 ± 10
CC1(C)CCC23CCC4(C)C(CCC5C6(C)CCC(OC7OC(CO)C(O)C(O)C7O)C(C)(C)C6CCC54C)C2C1OC3=O [Compound 39, 3-O-β-D-Glucopyranoside of 28-Oxyallobetulin]	> 100	> 100	–	–	–	–	> 100	–
C=C(C)[C@@H]1CC[C@]2(CO)CC[C@]3(C)[C@H](CC[C@@H]4[C@@]5(C)CC[C@H](O[C@@H]6O[C@H](CO)[C@@H](O)[C@H](O)[C@H]6O)C(C)(C)[C@@H]5CC[C@]43C)[C@@H]12 [Compound 12, 3-O-β-D-Glucopyranoside of Betulin]	> 200	> 200	> 200	> 200	> 200	> 200	> 200	> 200
C=C(C)[C@@H]1CC[C@]2(C(=O)O)CC[C@]3(C)[C@H](CC[C@@H]4[C@@]5(C)CC[C@H](OC(C)=O)C(C)(C)[C@@H]5CC[C@]43C)[C@@H]12 [Compound 24, 3-Acetoxybetulinic Acid]	57 ± 6	20 ± 2	–	–	–	–	18 ± 2	–
CC1(C)CCC23CCC4(C)C(CCC5C6(C)CCC(OC7OCC(O)C(O)C7O)C(C)(C)C6CCC54C)C2C1OC3 [Compound 35, 3-O-α-D-Arabinopyranoside of Allobetulin]	> 100	> 100	–	–	–	–	> 100	–
CC1(C)CC[C@]23CC[C@]4(C)[C@H](CC[C@@H]5[C@@]6(C)CC[C@H](O)C(C)(C)[C@@H]6CC[C@]54C)[C@H]2[C@H]1OC3=O [Compound 32, 28-Oxyallobetulin]	70 ± 9	> 100	–	–	–	–	> 100	–
C=C(C)[C@@H]1CC[C@]2(C(=O)OC)CC[C@]3(C)[C@H](CC[C@@H]4[C@@]5(C)CC[C@H](O)C(C)(C)[C@@H]5CC[C@]43C)[C@@H]12 [Compound 7, Methyl Betulinate]	19 ± 2	25 ± 4	19 ± 2	15.7 ± 0.9	21 ± 1	26 ± 1	19 ± 3	19 ± 4
C=C(C)[C@@H]1CC[C@]2(C)CC[C@]3(C)[C@H](CC[C@@H]4[C@@]5(C)CC[C@H](O[C@@H]6O[C@@H](C)[C@H](O)[C@@H](O)[C@H]6O)C(C)(C)[C@@H]5CC[C@]43C)[C@@H]12 [Compound 10, 3-O-α-L-Rhamnopyranoside of lupeol]	> 178	> 178	> 178	> 178	> 178	> 178	> 178	> 178
CC1(C)CC[C@]23CC[C@]4(C)[C@H](CC[C@@H]5[C@@]6(C)CC[C@H](O[C@@H]7O[C@H](CO)[C@H](O)[C@H](O)[C@H]7O)C(C)(C)[C@@H]6CC[C@]54C)[C@H]2[C@H]1OC3=O [Compound 42, 3-O-β-D-Galactopyranoside of 28-Oxyallobetulin]	> 100	> 100	–	–	–	–	> 100	–
CC1(C)CC[C@]23CC[C@]4(C)[C@H](CC[C@@H]5[C@@]6(C)CC[C@H](O[C@@H]7OC[C@@H](O)[C@H](O)[C@H]7O)C(C)(C)[C@@H]6CC[C@]54C)[C@H]2[C@H]1OC3 [Compound 38, 3-O-β-D-Xylopyranoside of Allobetulin]	> 100	> 100	–	–	–	–	> 100	–
CC1(C)CC[C@]23CC[C@]4(C)[C@H](CC[C@@H]5[C@@]6(C)CC[C@H](O[C@@H]7OC[C@@H](O)[C@H](O)[C@H]7O)C(C)(C)[C@@H]6CC[C@]54C)[C@H]2[C@H]1OC3=O [Compound 44, 3-O-β-D-Xylopyranoside of 28-Oxyallobetulin]	> 100	> 100	–	–	–	–	> 100	–
C=C(C)[C@@H]1CC[C@]2(COC(C)=O)CC[C@]3(C)[C@H](CC[C@@H]4[C@@]5(C)CC[C@H](OC(C)=O)C(C)(C)[C@@H]5CC[C@]43C)[C@@H]12 [Compound 4, 3,28-Diacetoxybetulin]	> 95	> 95	–	–	–	> 95	> 95	–
CC1(C)CC[C@]23CC[C@]4(C)[C@H](CC[C@@H]5[C@@]6(C)CC[C@H](O[C@H]7OC[C@@H](O)[C@@H](O)[C@@H]7O)C(C)(C)[C@@H]6CC[C@]54C)[C@H]2[C@H]1OC3=O [Compound 41, 3-O-α-D-Arabinopyranoside of 28-oxyallobetulin]	> 100	> 100	–	–	–	–	> 100	–
CC1(C)CC[C@]23CC[C@]4(C)[C@H](CC[C@@H]5[C@@]6(C)CC[C@H](O[C@H]7O[C@H](CO)[C@@H](O)[C@H](O)[C@@H]7O)C(C)(C)[C@@H]6CC[C@]54C)[C@H]2[C@H]1OC3=O [Compound 43, 3-O-α-D-Mannopyranoside of 28-oxyallobetulin]	> 100	> 100	–	–	–	–	> 100	–
C=C(C)[C@@H]1CC[C@]2(CO)CC[C@]3(C)[C@H](CC[C@@H]4[C@@]5(C)CC[C@H](O[C@@H]6O[C@H](CO)[C@H](O)[C@H](O)[C@H]6O)C(C)(C)[C@@H]5CC[C@]43C)[C@@H]12 [Compound 25, 3-O-β-D-Galactopyranoside of Betulin]	> 100	> 100	–	–	–	–	> 100	–
C[C@@H]1O[C@@H](O[C@H]2CC[C@]3(C)[C@H]4CC[C@@H]5[C@H]6[C@H]7OC(=O)[C@@]6(CCC7(C)C)CC[C@@]5(C)[C@]4(C)CC[C@H]3C2(C)C)[C@H](O)[C@H](O)[C@H]1O [Compound 40, 3-O-α-L-Rhamnopyranoside of 28-Oxyallobetulin]	> 100	> 100	–	–	–	–	> 100	–
CC1(C)CC[C@]23CC[C@]4(C)[C@H](CC[C@@H]5[C@@]6(C)CC[C@H](O[C@H]7O[C@H](CO)[C@@H](O)[C@H](O)[C@@H]7O)C(C)(C)[C@@H]6CC[C@]54C)[C@H]2[C@H]1OC3 [Compound 37, 3-O-α-D-Mannopyranoside of Allobetulin]	> 100	> 100	–	–	–	–	> 100	–
C=C(C)[C@@H]1CC[C@]2(C(=O)O)CC[C@]3(C)[C@H](CC[C@@H]4[C@@]5(C)CC[C@H](O[C@@H]6O[C@H](CO)[C@H](O)[C@H](O)[C@H]6O)C(C)(C)[C@@H]5CC[C@]43C)[C@@H]12 [Compound 28, 3-O-β-D-Galactopyranoside of Betulinic Acid]	> 100	> 100	–	–	–	–	> 100	–
